Measured values reported in patent publication US20190223443A1, “Methods to Increase Corn Growth” (Valent BioSciences LLC, priority 2015, published 2019).

Test system: Hybrid corn
Test: Vigor rating after foliar treatment at V2, field, Chabás, Santa Fe, Argentina (Example 1)
Assay type: in vivo
Conditions: 1 to 9 scale (untreated=5.0)
Protocol: Hybrid corn was grown under conventional tillage in Chabás, Santa Fe, Argentina. At V2 growth stage, GA3 or a combination of GA3 and ABA was applied as a foliar treatment. Vigor was rated on a 1 to 9 scale (untreated=5.0) following spray applications at the times specified in Table 1.

[1] = GA3 16 g/ha, mixtures plus ABA as labelled

Q: What does the source list for C=C1C[C@]23C[C@@]1(O)CC[C@H]2[C@@]12C=C[C@H](O)[C@@](C)(C(=O)O1)[C@H]2[C@@H]3C(=O)O [GA3, gibberellic acid]?
A: Vigor 3 d post-spraying (GA3 8 g/ha): 5.2; Vigor 7 d post-spraying (GA3 8 g/ha): 5.3; Vigor 15 d post-spraying (GA3 8 g/ha): 5.5; Vigor 3 d post-spraying [1]: 5.5; Vigor 7 d post-spraying [1]: 5.6; Vigor 15 d post-spraying [1]: 6.0
